Laboratory results as given in US6613734B2, “Peptides-containing liposomal surfactants” (The Scripps Research Institute, priority 1988, dated 2003).
Several values for one entry are separate records, joined by “and”; a condition that tells them apart may be missing. Identical values can stand only once. Marks after values point to notes of the source that are not given here.

Columns and labels:
[1] = observation whether peptide/solvent admixture formed a solution or a suspension; format: physicochemical
Experimental: Each polypeptide was admixed with the indicated solvent at a concentration of 2.5 mg of polypeptide per ml of solvent. […] Those admixtures forming a suspension were further admixed by water bath sonication for 10 seconds to form a very fine suspension, sufficient for pipetting using glass pipettes.

[2] = pulsating bubble technique ("bubble assay" of Enhorning, Enhorning Surfactometer); format: physicochemical; conditions: for Pressure Gradient 15″: 15 seconds; for Pressure Gradient 15″ / Pressure Gradient 1′ / Pressure Gradient 5′: peptide 10% by weight of PL, 37° C., negative pressure, mean of 3; for Pressure Gradient 1′: 1 minute; for Pressure Gradient 5′: 5 minutes
Experimental: Measurements of surface pressure across an air-liquid interface (expressed in negative cm of H2O pressure) at minimal (γmin) bubble radius were determined at various times using the pulsating bubble technique described by Enhorning, J. Appl. Physiol. 43: 198-203 (1977).
Briefly, the Enhorning Surfactometer (Surfactometer International, Toronto, Ontario) measures the pressure gradient (ΔP) across a liquid-air interface of a bubble that pulsates at a rate of 20 cycles/min between a maximal (0.55 mm) and minimal (0.4 mm) radius. The bubble, formed in a 37° C., water-enclosed, 20-μl sample chamber, is monitored through a microscopic optic while the pressure changes are recorded on a strip chart recorder calibrated for 0 and −2 cm H2O.
Each of the surfactants identified in Table 5 was assayed for surfactant activity as evidenced by their ability to reduce surface tension in vitro using the “bubble assay” of Enhorning as described above.
After admixture with solvent, each peptide was admixed with phospholipids (PL), DPPC:PG, 3:1, in chloroform in a glass tube so that the amount of polypeptide added equaled one-tenth (10% by. weight) of the amount of PL added, to form a surfactant according to either method A, B or C.
Each of the surfactants was then assayed for surfactant activity as evidenced by their ability to reduce surface tension in vitro in the bubble assay performed as described above. The pressure gradient (ΔP) is a measure of surfactant activity in the polypeptide-PL third admixture which was determined using an Enhorning Surfactometer as described above. Measurements were obtained at time points of 15 seconds (15″), 1 minute (1′) and 5 minutes (5′) and are expressed as a mean of three independent measurements of the indicated polypeptide-PL admixture.

fetal rabbit lung = test: dynamic compliance, fetal rabbit model; format: in vivo; conditions: single animal per line
Experimental: A subject polypeptide was first admixed with solvent as described in Example 3. […]
Surfactant was instilled in rabbit fetal lung by injection into the trachea from a single syringe of the following three components such that the components exit the syringe in the following order: (1) 0.05 ml air; (2) 0.1 ml of a synthetic surfactant prepared in Example 4A or either 2 mg of PL or 2 mg of native surfactant; and (3) 0.1 ml air.
From one syringe, a 0.1 ml aliquot of synthetic surfactant prepared as described in Example 4A (or 2 mg of NS or of PL), was instilled into the rabbit trachea as described above, followed by injection of 0.05 ml lactated Ringer's Solution and 0.2 ml air from a second syringe.
From one syringe, 0.1 ml of a synthetic surfactant prepared as described in Example 4A (or 2 mg of NS or of PL), 0.15 ml air, 0.1 ml saline, and 0.3 ml air were injected into the trachea as described above. Two subsequent aliquots of 0.3 ml air were given.
The surfactant activity of exemplary polypeptides of this invention was studied using the methods described in detail previously by Revak, et al, Am. Rev. Respir. Dis. 134: […] (1986), with the exceptions noted hereinbelow.
Twenty-seven day gestation fetal rabbits were delivered by hysterotomy and immediately injected with 0.05 ml Norcuron (Organon, Inc., N.J.) to prevent spontaneous breathing. The fetal rabbits were then weighed and a small cannula was inserted into the trachea by tracheotomy surfactant prepared as described above was then instilled into the fetal rabbit lung by one of the above instillation protocols.
Following instillation the rabbit was placed in a specially designed plethysmograph (containing a Celesco transducer) connected to a ventilator (Baby Bird, Baby Bird Corp., Palm Springs, Calif.) and the instilled lung was ventilated at a rate of 30 cycles per minute with a peak inspiratory pressure of 25 cm H2O, a positive end expiratory pressure of 4 cm H2O and an inspiratory time of 0.5 seconds. In some studies, dynamic compliance measurements were made at various times throughout the ventilation procedure. In others, static compliance measurements were made following ventilation.
Using the plethysmograph, dynamic compliance measurements were made at various times throughout a 60 minute ventilation period. […] Compliance was calculated by the formula below. [formula]
The above equation was solved with a multiple linear regression for C and R. The compliance (C) represents the elastic nature of the lungs and the resistance (R) represents the pressure necessary to overcome the resistance to the flow of gas into and out of the lungs.

[3] = 2.5 mg of polypeptide per ml of solvent, solvent 75% chloroform 25% methanol
[4] = 2.5 μg of peptide per μl of solvent, solvent methanol:H2O
[5] = 2.5 μg of peptide per μl of solvent, solvent H2O

RLLLLCLLLRLLLLCLLLRLLLLCLLLR [RCL-3]
Admixture Formed [1, 3]: suspension | Pressure Gradient 15″ ([2]; PL (DPPC:PG 3:1) 10 mg/ml): 0.55 cm of H2O | Pressure Gradient 1′ ([2]; PL (DPPC:PG 3:1) 10 mg/ml): 0.51 cm of H2O | Pressure Gradient 5′ ([2]; PL (DPPC:PG 3:1) 10 mg/ml): 0.33 cm of H2O

RYSVILLDTLLGRMLPQLVCRLVLRCSMDD [p52-81]
Admixture Formed [1, 4]: suspension | Admixture Formed ([1]; 2.5 mg of polypeptide per ml of solvent, solvent 67% DMF 33% chloroform): solution | Dynamic Compliance, 30 minutes after surfactant instillation (fetal rabbit lung; 5% peptide to PL, Protocol 3): 517 ml air/cm H2O (g body weight × 10^6) and 434 ml air/cm H2O (g body weight × 10^6) | Dynamic Compliance, 60 minutes after surfactant instillation (fetal rabbit lung; 5% peptide to PL, Protocol 3): 226* ml air/cm H2O (g body weight × 10^6) and 55* ml air/cm H2O (g body weight × 10^6) | Dynamic Compliance, 30 minutes after surfactant instillation (fetal rabbit lung; 10% peptide to PL, Protocol 2): 195 ml air/cm H2O (g body weight × 10^6) and 43 ml air/cm H2O (g body weight × 10^6) | Dynamic Compliance, 60 minutes after surfactant instillation (fetal rabbit lung; 10% peptide to PL, Protocol 2): 1,243 ml air/cm H2O (g body weight × 10^6) and 1,690 ml air/cm H2O (g body weight × 10^6) | Pressure Gradient 15″ ([2]; PL (DPPC:PG 3:1) 4 mg/ml): 1.33 cm of H2O | Pressure Gradient 1′ ([2]; PL (DPPC:PG 3:1) 4 mg/ml): 1.19 cm of H2O | Pressure Gradient 5′ ([2]; PL (DPPC:PG 3:1) 4 mg/ml): 0.96 cm of H2O

C RLVLRCSMDD (N-terminal Cys) [p71-81]
Admixture Formed [1, 5]: suspension

RLLLLLLLLRLLLLLLLLRLL [RL8]
Admixture Formed ([1]; 2.5 mg of polypeptide per ml of solvent, solvent 19% chloroform 81% methanol): suspension | Pressure Gradient 15″ ([2]; PL (DPPC:PG 3:1) 10 mg/ml): 0.68 cm of H2O | Pressure Gradient 1′ ([2]; PL (DPPC:PG 3:1) 10 mg/ml): 0.69 cm of H2O | Pressure Gradient 5′ ([2]; PL (DPPC:PG 3:1) 10 mg/ml): 0.19 cm of H2O

LPQLVCRLVLRCSMDD [p66-81]
Admixture Formed [1, 4]: suspension | Admixture Formed ([1]; 2.5 mg of polypeptide per ml of solvent, solvent 40% DMF 60% chloroform): suspension | Pressure Gradient 15″ ([2]; PL (DPPC:PG 3:1) 4 mg/ml): 1.22 cm of H2O | Pressure Gradient 1′ ([2]; PL (DPPC:PG 3:1) 4 mg/ml): 1.11 cm of H2O | Pressure Gradient 5′ ([2]; PL (DPPC:PG 3:1) 4 mg/ml): 0.84 cm of H2O

ERYSVILLDTLLGRMLPQLVCR [p51-72]
Admixture Formed [1, 3]: suspension | Pressure Gradient 15″ ([2]; PL (DPPC:PG 3:1) 10 mg/ml): 1.15 cm of H2O | Pressure Gradient 1′ ([2]; PL (DPPC:PG 3:1) 10 mg/ml): 0.76 cm of H2O | Pressure Gradient 5′ ([2]; PL (DPPC:PG 3:1) 10 mg/ml): 0.33 cm of H2O

SVILLDTLLGRMLPQLVCR [p54-72]
Admixture Formed ([1]; 2.5 mg of polypeptide per ml of solvent, solvent 76% chloroform 24% methanol): suspension | Pressure Gradient 15″ ([2]; PL (DPPC:PG 3:1) 10 mg/ml): 1.28 cm of H2O | Pressure Gradient 1′ ([2]; PL (DPPC:PG 3:1) 10 mg/ml): 0.92 cm of H2O | Pressure Gradient 5′ ([2]; PL (DPPC:PG 3:1) 10 mg/ml): 0.38 cm of H2O

ERYSVILLDTLLGRM [p51-65]
Admixture Formed [1, 5]: suspension

RLLLLCLLLRLLLLCLLLRLL [RCL-2]
Admixture Formed ([1]; 2.5 mg of polypeptide per ml of solvent, solvent 67% chloroform 33% methanol): suspention | Pressure Gradient 15″ ([2]; PL (DPPC:PG 3:1) 10 mg/ml): 0.00 cm of H2O | Pressure Gradient 1′ ([2]; PL (DPPC:PG 3:1) 10 mg/ml): 0.00 cm of H2O | Pressure Gradient 5′ ([2]; PL (DPPC:PG 3:1) 10 mg/ml): 0.00 cm of H2O

SVILLDTLLGRMLPQLVCRLVLR [p54-76]
Admixture Formed ([1]; 2.5 mg of polypeptide per ml of solvent, solvent 71% chloroform 24% methanol): suspension | Pressure Gradient 15″ ([2]; PL (DPPC:PG 3:1) 10 mg/ml): 0.92 cm of H2O | Pressure Gradient 1′ ([2]; PL (DPPC:PG 3:1) 10 mg/ml): 0.82 cm of H2O | Pressure Gradient 5′ ([2]; PL (DPPC:PG 3:1) 10 mg/ml): 0.23 cm of H2O

VAQVCRVVPLVAGGI [p31-45]
Admixture Formed [1, 5]: solution

CQCLAERYSVILLDTLLGRMLPQLVCRLVLR [p46-76]
Admixture Formed ([1]; 2.5 mg of polypeptide per ml of solvent, solvent 64% chloroform 36% methanol): solution | Pressure Gradient 15″ ([2]; PL (DPPC:PG 3:1) 10 mg/ml): 0.90 cm of H2O | Pressure Gradient 1′ ([2]; PL (DPPC:PG 3:1) 10 mg/ml): 0.80 cm of H2O | Pressure Gradient 5′ ([2]; PL (DPPC:PG 3:1) 10 mg/ml): 0.62 cm of H2O

MIPKGALAVAVAQVC [p21-35]
Admixture Formed ([1]; 2.5 μg of peptide per μl of solvent, solvent Chloroform): suspension

CRALIKRIQAMIPKG [p11-25]
Admixture Formed [1, 5]: solution

ERYSVILLDTLLGRMLPQLVCRLVLRCSMDD [p51-81]
Admixture Formed ([1]; 2.5 mg of polypeptide per ml of solvent, solvent 50% chloroform 50% methanol): suspension | Pressure Gradient 15″ ([2]; PL (DPPC:PG 3:1) 10 mg/ml): 0.94 cm of H2O | Pressure Gradient 1′ ([2]; PL (DPPC:PG 3:1) 10 mg/ml): 0.86 cm of H2O | Pressure Gradient 5′ ([2]; PL (DPPC:PG 3:1) 10 mg/ml): 0.64 cm of H2O

RRLLLLLLLRRLLLLLLLRRL [RL7]
Admixture Formed ([1]; 2.5 mg of polypeptide per ml of solvent, solvent 49% chloroform 51% methanol): solution | Pressure Gradient 15″ ([2]; PL (DPPC:PG 3:1) 4 mg/ml): 1.65 cm of H2O | Pressure Gradient 1′ ([2]; PL (DPPC:PG 3:1) 4 mg/ml): 1.25 cm of H2O | Pressure Gradient 5′ ([2]; PL (DPPC:PG 3:1) 4 mg/ml): 1.00 cm of H2O

p74-81: eight amino acid residue control peptide, residues 74-81 of SEQ ID NO 12 (SP18), does not conform to the teachings of the invention (VLRCSMDD) [reference compound]
Admixture Formed [1, 5]: solution | Admixture Formed ([1]; 2.5 mg of polypeptide per ml of solvent, solvent water): solution | Pressure Gradient 15″ ([2]; PL (DPPC:PG 3:1) 4 mg/ml): 2.37 cm of H2O | Pressure Gradient 1′ ([2]; PL (DPPC:PG 3:1) 4 mg/ml): 2.32 cm of H2O | Pressure Gradient 5′ ([2]; PL (DPPC:PG 3:1) 4 mg/ml): 2.31 cm of H2O | surfactant activity compared with the phospholipids alone ([2]; peptide admixed with phospholipids (DPPC:PG 3:1), bubble assay): did not form a PS having a greater activity than the phospholipid alone

RLLLLCLLLRLLLLCLLLR [RCL-1]
Admixture Formed ([1]; 2.5 mg of polypeptide per ml of solvent, solvent 79% chloroform 21% methanol): suspension | Pressure Gradient 15″ ([2]; PL (DPPC:PG 3:1) 10 mg/ml): 0.50 cm of H2O | Pressure Gradient 1′ ([2]; PL (DPPC:PG 3:1) 10 mg/ml): 0.59 cm of H2O | Pressure Gradient 5′ ([2]; PL (DPPC:PG 3:1) 10 mg/ml): 0.06 cm of H2O

LLGRMLPQLVCRLVL [p61-75]
Admixture Formed ([1]; 2.5 μg of peptide per μl of solvent, solvent methanol): suspension

RLLLLRLLLLRLLLLRLLLLR [RL4]
Admixture Formed ([1]; 2.5 mg of polypeptide per ml of solvent, solvent 32% chloroform 68% methanoi): solution | Pressure Gradient 15″ ([2]; PL (DPPC:PG 3:1) 4 mg/ml): 0.58 cm of H2O | Pressure Gradient 1′ ([2]; PL (DPPC:PG 3:1) 4 mg/ml): 0.65 cm of H2O | Pressure Gradient 5′ ([2]; PL (DPPC:PG 3:1) 4 mg/ml): 0.33 cm of H2O

VAGGICQCLAERYSV [p41-55]
Admixture Formed [1, 5]: solution

DTLLGRMLPQLVCRLVLRCSMDD [p59-81]
Admixture Formed ([1]; 2.5 mg of polypeptide per ml of solvent, solvent 68% chloroform 32% methanol): solution | Pressure Gradient 15″ ([2]; PL (DPPC:PG 3:1) 4 mg/ml): 1.08 cm of H2O | Pressure Gradient 1′ ([2]; PL (DPPC:PG 3:1) 4 mg/ml): 1.02 cm of H2O | Pressure Gradient 5′ ([2]; PL (DPPC:PG 3:1) 4 mg/ml): 0.75 cm of H2O
